Results: patent US20240366553A1, “ASPARTIC ACID COPPER COMPLEX, AND USE THEREOF” (GUANGZHOU INSIGHTER BIOTECHNOLOGY CO., LTD., priority 2021, published 2024)
Like-named read-outs stand apart in the source and are kept apart here.

What was measured:
[1] = test system: Lingnan yellow-feathered, fast-growing, and large-sized broilers; settings: for Average feed consumption / Average weight gain / Feed-to-meat ratio / Survival rate (%) / Relative weight gain rate (%): broilers aged 1 to 21 days; for Relative weight gain rate (%): relative to control group; for Physical characteristics of the experimental chickens: experimental groups of compounds 1-7
Description: (§1) Experimental animals: 900 one-day-old Lingnan yellow-feathered, fast-growing, and large-sized broilers; 150 weaned piglets;
(§2) Feeds: basal feed for chickens and basal feed for pigs that contain no antimicrobial drugs, copper sources and growth promoters;
(§3) Experimental samples: compound 1, compound 2, compound 3, compound 4, compound 5, compound 6, compound 7,
900 one-day-old Lingnan yellow-feathered, fast-growing, and large-sized broilers were randomly divided into 18 groups (50 broilers/group). […] The broilers had free access to food. The weight gain and feed conversion of the experimental chickens (aged from 1 to 21 days) in each experimental group were recorded.

[2] = test system: weaned piglets; settings: for Average weight gain / Feed-to-meat ratio / Survival rate (%) / Total feed consumption / Total weight gain / Relative weight gain rate (%): weaned piglets, 30 days; for Total feed consumption / Total weight gain: 10 pigs; for Relative weight gain rate (%): control group = 100; for Improvement in the feed conversion of the experimental pigs compared with compound 4: used at the same doses (50 mg/kg)
Description: as §1, §2, §3
150 weaned piglets were grouped according to Table 2 (10 piglets/group). […] The piglets had free access to food. The weight gain and feed conversion of the experimental pigs in each experimental group were recorded within 30 days after […] weaning.

[3] = test system: black carp (subyearlings); experiment: Use of aspartic acid copper complex in aquaculture feeds (black carp breeding experiment); format: in vivo; settings: 30 mg/kg in feed (as copper ions), 8 weeks
Description: Experimental fishes: The experimental fishes used were black carp (subyearlings), which were provided by the Dafeng fish nursery (Huizhou city, Guangdong province). Healthy and active fingerling black carps (uniform in size) were fed for 4 weeks in a big net cage (4×2×1.5 m^3) and then the formal breeding experiment was carried out. The experimental systems were small floating net cages (1.1×1.1×1.1 m^3 in size). Each small net cage was provided with an air-filling head, which allowed for continuous inflation of the cages for 24 h a day. The small net cages and the acclimatization net cage were all placed in a 3500 m^2 pond in the experimental field. […] During the trial, 480 black carps (fasted for 1 d) were randomly divided into 10 groups, with 4 replicates for each group and 12 fishes in each replicate. After weighing as a whole, the black carps were randomly placed into […] and fed with different experimental feeds.
Experimental feeds: The experimental feeds were formulated following the formula in Table 5. According to Table 6, different copper element supplements (calculated based on the copper ions) were added to the feeds in different experimental groups, respectively. The feed raw materials were subjected to ultrafine grinding and then granulated into floating expanded feeds (3 mm) using an expansion machine from Jiangsu Muyang Corporation. The demolding temperature was 130° C. 3% soybean oil was externally sprayed using an oil spraying device. The finished product was sealed and stored in a cool place for later use.
Experimental management: During the trial, the carps were manually fed in a restricted dose. The feeding dose was adjusted once a week, and the doses for all groups (based on the initial body weight) were completely consistent. The carps were fed twice a day (at 7:30 and 15:00). The experiment lasted for 8 weeks. During the trial, the water quality was regularly monitored, and throughout the breeding, the water temperature was kept at 26.88±3.08° C., DO>5.0 mg O L^−1, pH 7.8, ammonia nitrogen<0.50 mg NL^−1, and nitrite-nitrogen<0.05 mg N L^−1.
Parametric statistics: During the trial, the carps in each net cage were weighed as a whole one day after discontinuation of feeding, and the average weight gain (g) and feed-to-meat ratio were calculated. The calculation formulas are as follows:
Average weight gain (g)=Average final weight−Average initial weight; Feed-to-meat ratio=Food intake/Weight gain of fishes;

[4] = 5 mg/kg in feed (as copper ion)
[5] = 50 mg/kg in feed (as copper ion)
[6] = 100 mg/kg in feed (as copper ion)
[7] = 200 mg/kg in feed (as copper ion)
[8] = 300 mg/kg in feed (as copper ion)
[9] = group 1-30: 30 mg/kg in feed (as copper ion)
[10] = 8 mg/kg in feed (as copper ion)
[11] = group 1-200: 200 mg/kg in feed (as copper ion)

## N[C@@H](CC(=O)[O-])C(=O)[O-].O.O.[Cu+2] [Compound 1, [(Cu(II))(L-Asp)(H2O)2]]
[1]; [4]
  Average feed consumption: 916 g
  Average weight gain: 497 g
  Feed-to-meat ratio: 1.843
  Survival rate (%): 100%
  Relative weight gain rate (%): 104.9%
[1]; [5]
  Average feed consumption: 923 g
  Average weight gain: 518 g
  Feed-to-meat ratio: 1.782
  Survival rate (%): 100%
  Relative weight gain rate (%): 109.3%
[1]; [6]
  Average feed consumption: 970 g
  Average weight gain: 546 g
  Feed-to-meat ratio: 1.777
  Survival rate (%): 100%
  Relative weight gain rate (%): 115.2%
[1]; [7]
  Average feed consumption: 1004 g
  Average weight gain: 567 g
  Feed-to-meat ratio: 1.771
  Survival rate (%): 100%
  Relative weight gain rate (%): 119.6%
[1]; [8]
  Average feed consumption: 926 g
  Average weight gain: 526 g
  Feed-to-meat ratio: 1.760
  Survival rate (%): 100%
  Relative weight gain rate (%): 111.0%
[1]; addition amount of 50-100 mg/kg
  Dose effect in the experimental results (broilers): exhibited a dose effect
[1]
  Physical characteristics of the experimental chickens: normal physical characteristics
[1]; [9]
  Average feed consumption: 919 g
  Average weight gain: 511 g
  Feed-to-meat ratio: 1.798
  Survival rate (%): 100%
  Relative weight gain rate (%): 107.8%
[2]; [10]
  Average weight gain: 11.26 kg
  Feed-to-meat ratio: 2.268
  Survival rate (%): 100%
  Total feed consumption: 255.34 kg
  Total weight gain: 112.6 kg
  Relative weight gain rate (%): 103.30%
[2]; [5]
  Average weight gain: 12.12 kg
  Feed-to-meat ratio: 2.121
  Survival rate (%): 100%
  Total feed consumption: 257.08 kg
  Total weight gain: 121.2 kg
  Relative weight gain rate (%): 111.19%
[2]; [6]
  Average weight gain: 12.21 kg
  Feed-to-meat ratio: 2.112
  Survival rate (%): 100%
  Total feed consumption: 257.86 kg
  Total weight gain: 122.1 kg
  Relative weight gain rate (%): 112.02%
[2]; 8-200 mg/kg groups
  Dose effect on improving the production performance of the experimental pigs: exhibited a dose effect
[2]; dose of 50 mg/kg, comparator copper sulfate 250 mg/kg
  Growth-promoting effect and feed conversion rate versus high-level copper sulfate group: close to those achieved in the high-level copper sulfate group
[2]; [9]
  Average weight gain: 11.66 kg
  Feed-to-meat ratio: 2.205
  Survival rate (%): 100%
  Total feed consumption: 257.09 kg
  Total weight gain: 116.6 kg
  Relative weight gain rate (%): 106.97%
[2]; [11]
  Average weight gain: 12.34 kg
  Feed-to-meat ratio: 2.093
  Survival rate (%): 100%
  Total feed consumption: 258.28 kg
  Total weight gain: 123.4 kg
  Relative weight gain rate (%): 113.21%
[2]
  Improvement in the feed conversion of the experimental pigs compared with compound 4: about 2 fold
[3]
  Average weight gain: 357 g
  Feed-to-meat ratio: 1.401

## N[C@@H](CC(=O)[O-])C(=O)[O-].O.O.[Cu+2] [Compound 2, [(Cu(II))(L-Asp)(H2O)2]. (H2O)0.34]
[1]; [5]
  Average feed consumption: 908 g
  Average weight gain: 509 g
  Feed-to-meat ratio: 1.783
  Survival rate (%): 100%
  Relative weight gain rate (%): 107.4%
[1]
  Physical characteristics of the experimental chickens: normal physical characteristics
[2]; [5]
  Average weight gain: 12.30 kg
  Feed-to-meat ratio: 2.116
  Survival rate (%): 100%
  Total feed consumption: 260.21 kg
  Total weight gain: 123.0 kg
  Relative weight gain rate (%): 112.8%
[2]
  Improvement in the feed conversion of the experimental pigs compared with compound 4: about 2 fold
[3]
  Average weight gain: 368 g
  Feed-to-meat ratio: 1.359
